{"source": "paper PMC4363092", "about": "(Journal of medicinal chemistry, 2014)", "target": "T1, human NTPDase1 (Homo sapiens, UniProt P49961)", "T1 sequence (P49961 1-510)": "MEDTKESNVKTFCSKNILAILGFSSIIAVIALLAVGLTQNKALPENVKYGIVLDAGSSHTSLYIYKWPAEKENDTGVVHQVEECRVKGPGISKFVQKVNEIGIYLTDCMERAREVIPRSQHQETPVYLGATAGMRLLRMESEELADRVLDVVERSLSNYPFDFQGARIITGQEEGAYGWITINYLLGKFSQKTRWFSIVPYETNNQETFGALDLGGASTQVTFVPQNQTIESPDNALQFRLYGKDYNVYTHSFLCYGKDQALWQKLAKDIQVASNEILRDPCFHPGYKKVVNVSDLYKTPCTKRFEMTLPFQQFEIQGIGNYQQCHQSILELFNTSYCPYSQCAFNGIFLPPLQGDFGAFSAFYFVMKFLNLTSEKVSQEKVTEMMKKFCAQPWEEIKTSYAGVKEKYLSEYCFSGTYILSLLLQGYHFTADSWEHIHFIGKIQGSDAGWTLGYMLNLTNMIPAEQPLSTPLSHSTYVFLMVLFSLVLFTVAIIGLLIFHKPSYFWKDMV", "test": "Inhibition of NTPDase1 activity", "assay_type": "biochemical", "conditions": "analogue 100 μM, substrate ATP 100 μM"}
{"smiles": "Nc1ncnc2c1ncn2[C@@H]1O[C@H](COP(=O)(O)CP(=O)(O)OP(O)(O)=S)[C@@H](O)[C@H]1O", "note": "[compound 3]", "values": [{"measurement": "inhibition (%) ± SD, human NTPDase1", "value": 60, "unit": "%"}]}
